Common to all, as to experiment: relative viability (nuclei count vs DMSO), 5 days (fraction); higher = more cells survive
Compound in the assay “SGI-1776 + Crizotinib”: CN1CCC(CNc2ccc3ncc(-c4cccc(OC(F)(F)F)c4)n3n2)CC1 [SGI-1776] + C[C@@H](Oc1cc(-c2cnn(C3CCNCC3)c2)cnc1N)c1c(Cl)ccc(F)c1Cl [Crizotinib] (partner 1 µM)
The essentials: (§1)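 Nuclei were stained with Hoechst during a one-step fixation (final 0.05% Triton X-100, 1% formaldehyde, 1 ug/ml Hoechst) carried out 5 days after dosing, then counted on 4× images. The cells, lung cancer lines in 1536-well plates, had been dosed by pin tool the day after seeding with one drug alone or a fixed anchor-drug dose plus five library-drug doses (not always all listed) in √10 steps. Relative viability is the nuclei count in treated wells divided by that in vehicle wells, and each value is the median of duplicate plates.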

Compound in the assay “Entinostat + Luminespib”: Nc1ccccc1NC(=O)c1ccc(CNC(=O)OCc2cccnc2)cc1 [Entinostat] + CCNC(=O)c1noc(-c2cc(C(C)C)c(O)cc2O)c1-c1ccc(CN2CCOCC2)cc1 [Luminespib] (partner 0.01 µM)
The essentials: as §1

Compound in the assay “Entinostat + Crizotinib”: Nc1ccccc1NC(=O)c1ccc(CNC(=O)OCc2cccnc2)cc1 [Entinostat] + C[C@@H](Oc1cc(-c2cnn(C3CCNCC3)c2)cnc1N)c1c(Cl)ccc(F)c1Cl [Crizotinib] (partner 1 µM)
The essentials: as §1

Compound in the assay “Entinostat + Pemetrexed”: Nc1ccccc1NC(=O)c1ccc(CNC(=O)OCc2cccnc2)cc1 [Entinostat] + Nc1nc2[nH]cc(CCc3ccc(C(=O)N[C@@H](CCC(=O)O)C(=O)O)cc3)c2c(=O)[nH]1 [Pemetrexed] (partner 0.2 µM)
The essentials:
as §1

This is an account of results in the supplement of paper PMC10307832.

On to RERF-LC-KJ, for which the relative viability is 0.886 with SGI-1776 + Crizotinib (first compound 0.08 µM); 0.786 with SGI-1776 + Crizotinib (first compound 0.8 µM); 0.836 with SGI-1776 + Crizotinib (first compound 2.53 µM); 0.865 with SGI-1776 + Crizotinib (first compound 8 µM); 1.13 with Entinostat + Luminespib (first compound 0.02 µM); 1.16 in the assay with Entinostat + Luminespib (first compound 0.06325 µM). Also, the relative viability with Entinostat + Luminespib (first compound 0.2 µM) stood at 1.02; in the assay with Entinostat + Luminespib (first compound 0.6325 µM), 0.438; with Entinostat + Luminespib (first compound 2 µM), 0.322; with Entinostat + Crizotinib (first compound 0.02 µM) it was 0.844; in the assay with Entinostat + Crizotinib (first compound 0.06325 µM), 0.75; in the assay with Entinostat + Crizotinib (first compound 0.2 µM) it was 0.754. For the same cell line, the relative viability is 0.431 with Entinostat + Crizotinib (first compound 0.6325 µM); 0.233 in the assay with Entinostat + Crizotinib (first compound 2 µM); 0.494 with Entinostat + Pemetrexed (first compound 0.02 µM); 0.486 with Entinostat + Pemetrexed (first compound 0.06325 µM); 0.474 with Entinostat + Pemetrexed (first compound 0.2 µM); 0.408 in the assay with Entinostat + Pemetrexed (first compound 0.6325 µM). Besides, the relative viability with Entinostat + Pemetrexed (first compound 2 µM) worked out at 0.319.

Consider SK-LU-1, for which the relative viability turned out to be 1.04 with SGI-1776 + Crizotinib (first compound 0.08 µM); 0.833 in the assay with SGI-1776 + Crizotinib (first compound 0.8 µM); 0.756 with SGI-1776 + Crizotinib (first compound 2.53 µM); 0.352 in the assay with SGI-1776 + Crizotinib (first compound 8 µM); 0.207 with Entinostat + Luminespib (first compound 0.02 µM); 0.202 with Entinostat + Luminespib (first compound 0.06325 µM). Also, the relative viability with Entinostat + Luminespib (first compound 0.2 µM) came out at 0.227; in the assay with Entinostat + Luminespib (first compound 0.6325 µM), 0.2; with Entinostat + Luminespib (first compound 2 µM) it was 0.212; in the assay with Entinostat + Crizotinib (first compound 0.02 µM) it was 0.935; in the assay with Entinostat + Crizotinib (first compound 0.06325 µM) it was 0.756; with Entinostat + Crizotinib (first compound 0.2 µM) it was 0.733. For the same cell line, the relative viability with Entinostat + Crizotinib (first compound 0.6325 µM) stood at 0.572; with Entinostat + Crizotinib (first compound 2 µM) it was 0.511; with Entinostat + Pemetrexed (first compound 0.02 µM), 1; with Entinostat + Pemetrexed (first compound 0.06325 µM), 0.921; with Entinostat + Pemetrexed (first compound 0.2 µM), 0.988; with Entinostat + Pemetrexed (first compound 0.6325 µM), 0.879. The relative viability with Entinostat + Pemetrexed (first compound 2 µM) worked out at 0.485.

With SK-MES-1, the relative viability with SGI-1776 + Crizotinib (first compound 0.08 µM) came out at 1.11; in the assay with SGI-1776 + Crizotinib (first compound 0.8 µM), 0.947; in the assay with SGI-1776 + Crizotinib (first compound 2.53 µM) it was 1.02; with SGI-1776 + Crizotinib (first compound 8 µM), 0.979; with Entinostat + Luminespib (first compound 0.02 µM), 0.798; with Entinostat + Luminespib (first compound 0.06325 µM) it was 1.03. Moreover, the relative viability with Entinostat + Luminespib (first compound 0.2 µM) turned out to be 0.891; with Entinostat + Luminespib (first compound 0.6325 µM) it was 0.882; with Entinostat + Luminespib (first compound 2 µM), 0.353; with Entinostat + Crizotinib (first compound 0.02 µM) it was 0.984; in the assay with Entinostat + Crizotinib (first compound 0.06325 µM), 1.03; with Entinostat + Crizotinib (first compound 0.2 µM), 1.09. Also, the relative viability stood at 0.955 in the assay with Entinostat + Crizotinib (first compound 0.6325 µM); 0.67 with Entinostat + Crizotinib (first compound 2 µM); 0.929 in the assay with Entinostat + Pemetrexed (first compound 0.02 µM); 1.01 with Entinostat + Pemetrexed (first compound 0.06325 µM); 1.04 in the assay with Entinostat + Pemetrexed (first compound 0.2 µM); 0.944 with Entinostat + Pemetrexed (first compound 0.6325 µM). Also, the relative viability in the assay with Entinostat + Pemetrexed (first compound 2 µM) was 0.577.

Take SW 1573: the relative viability with SGI-1776 + Crizotinib (first compound 0.08 µM) was found to be 0.904; with SGI-1776 + Crizotinib (first compound 0.8 µM), 0.835; in the assay with SGI-1776 + Crizotinib (first compound 2.53 µM), 0.624; in the assay with SGI-1776 + Crizotinib (first compound 8 µM) it was 0.395; with Entinostat + Luminespib (first compound 0.02 µM), 0.531; with Entinostat + Luminespib (first compound 0.06325 µM), 0.35. The relative viability came to 0.162 with Entinostat + Luminespib (first compound 0.2 µM); 0.262 with Entinostat + Luminespib (first compound 0.6325 µM); 0.217 in the assay with Entinostat + Luminespib (first compound 2 µM); 0.848 in the assay with Entinostat + Crizotinib (first compound 0.02 µM); 0.865 with Entinostat + Crizotinib (first compound 0.06325 µM); 0.937 with Entinostat + Crizotinib (first compound 0.2 µM). The relative viability with Entinostat + Crizotinib (first compound 0.6325 µM) turned out to be 0.761; in the assay with Entinostat + Crizotinib (first compound 2 µM), 0.592; in the assay with Entinostat + Pemetrexed (first compound 0.02 µM), 0.806; in the assay with Entinostat + Pemetrexed (first compound 0.06325 µM), 0.88; with Entinostat + Pemetrexed (first compound 0.2 µM) it was 1.08; in the assay with Entinostat + Pemetrexed (first compound 0.6325 µM), 0.966. In addition, in the assay with Entinostat + Pemetrexed (first compound 2 µM), the relative viability was determined as 0.452.
